Test results: ChEMBL document CHEMBL1201862, “PubChem BioAssay data set” (2004)
Activity calls are given as the source filed them.

What was measured:
[1] = luciferase reporter signal suppression in cells – H4 neuroglioma cells, luminescence, dose response (AID 1990); format: functional, cell-based
[2] = tested on: Streptococcus sp. 'group A'; experiment: Streptococcus pyogenes SK(-)GAS viability under kanamycin – luminescence, BacTiterGlo, confirmation, counter-screen for streptokinase expression inhibitor project, dose response (AID 1900); format: functional, organism-based
[3] = Luminescence Cell-Based Dose Response HTS to Identify Inhibitors of 5'UTR Stem-Loop Driven Prion Protein mRNA Translation in H4 Neuroglioblastoma Cells. [Related pubchem assays: 1827 (Project Summary), 1813 (Primary HTS)]; format: functional
[4] = alpha-synuclein stem-loop luciferase translation blockers – H4 neuroglioma cells, luminescence, confirmation (AID 1988); format: functional, cell-based
[5] = biological target: T1, Streptokinase A (Streptococcus pyogenes serotype M1, UniProt P10520); experiment: viability-normalized secreted streptokinase activity reduction – plasminogen activation absorbance, OD405, dose response (AID 1914); format: functional, Streptococcus pyogenes M1 GAS;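 note: secreted streptokinase activity via plasminogen activation per viability signal from cell pellet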
T1 sequence (P10520 whole entry): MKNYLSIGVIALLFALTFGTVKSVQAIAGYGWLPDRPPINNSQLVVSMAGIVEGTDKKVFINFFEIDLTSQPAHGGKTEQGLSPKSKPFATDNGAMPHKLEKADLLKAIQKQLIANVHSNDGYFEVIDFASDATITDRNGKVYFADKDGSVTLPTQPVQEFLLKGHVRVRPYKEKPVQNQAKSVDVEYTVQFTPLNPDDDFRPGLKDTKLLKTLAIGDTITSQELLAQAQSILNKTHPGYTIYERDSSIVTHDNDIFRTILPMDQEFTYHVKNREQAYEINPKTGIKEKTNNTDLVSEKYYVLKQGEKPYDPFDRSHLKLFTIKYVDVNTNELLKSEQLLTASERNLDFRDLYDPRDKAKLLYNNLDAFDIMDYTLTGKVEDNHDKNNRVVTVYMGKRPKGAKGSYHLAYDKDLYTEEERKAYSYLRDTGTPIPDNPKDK

[6] = tested on: Streptococcus; experiment: GAS UMAA2166 growth inhibition – luminescence, BacTiterGlo, counter-screen for streptokinase expression inhibitor project, dose response (AID 1915); format: functional, organism-based;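 note: potency for reduction of bacterial viability or growth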
[7] = biological target: T2, Microphthalmia-associated transcription factor (Homo sapiens, UniProt O75030); experiment: reducers of TRPM1 reporter luminescence, concentration series – cell-based, SK-MEL-5, cherry-picked, set 3, MITF inhibitor project, dose response (AID 493073); format: functional;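 note: SK-MEL-5 melanoma cells with luciferase driven by the MITF target TRPM1 promoter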
T2 sequence (O75030 whole entry): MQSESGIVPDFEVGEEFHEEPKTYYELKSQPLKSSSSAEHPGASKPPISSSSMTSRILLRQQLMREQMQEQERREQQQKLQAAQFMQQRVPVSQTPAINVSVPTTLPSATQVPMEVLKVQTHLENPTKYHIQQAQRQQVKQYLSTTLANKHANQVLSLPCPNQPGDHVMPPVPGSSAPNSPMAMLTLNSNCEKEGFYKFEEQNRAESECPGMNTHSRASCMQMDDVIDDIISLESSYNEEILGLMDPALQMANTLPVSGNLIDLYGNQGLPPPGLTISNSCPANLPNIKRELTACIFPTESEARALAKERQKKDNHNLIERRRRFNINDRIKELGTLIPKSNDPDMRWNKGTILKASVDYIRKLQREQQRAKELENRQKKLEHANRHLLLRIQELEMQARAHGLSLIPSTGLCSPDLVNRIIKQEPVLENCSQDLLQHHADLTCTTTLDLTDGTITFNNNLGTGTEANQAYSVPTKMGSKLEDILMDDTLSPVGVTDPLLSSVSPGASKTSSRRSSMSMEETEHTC

[8] = tested on: CHO; experiment: CHO cell viability loss, potency – luminescence, cytotoxicity control for TLR9-MyD88 binding inhibitor project, dose response (AID 588339); format: functional, cell-based, hamster; conditions: Cricetulus griseus;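 note: CHO cells stably coexpressing TLR9 and MyD88 fusions from primary screen; compound exposure lasted 48 hours before viability readout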
[9] = biological target: Beta Lactamase (Pseudomonas aeruginosa, UniProt Q932Y6); experiment: BLA reporter interference, concentration series – BLA reporter cells, FRET fluorescence, artefact control for TLR9-MyD88 binding inhibitor project, dose response (AID 588341); format: cell-based;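 note: cell based assay in CHO-K1 cells stably expressing beta-lactamase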
[10] = tested on: INS1; experiment: INS-1E survival protection against cytokine death – cell-based, luminescence, retest, dose response (AID 449756); format: functional; conditions: Rattus norvegicus;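 note: cell death triggered by IL-1 beta plus TNF-alpha plus IFN-gamma mixture; protective hits raise ATP signal compared with cytokine alone wells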
[11] = tested on: A-375; experiment: proliferation inhibition in MITF-low A375 cells – cell-based, cherry-pick samples, set 2, counter-screen for MITF modulator project, dose response (AID 540335); format: functional; conditions: Homo sapiens
[12] = reduction of Shn3 3'UTR-driven luciferase in osteoblasts – cell-based, Clone20 osteoblasts, firefly luciferase, cherry-picked, dose response (AID 624132); format: functional;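 note: firefly luciferase luminescence from reporter carrying the Shn3 3'UTR in osteoblasts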
[13] = loss of viability in HepG2 cells – cell-based, CellTiter-Glo, cherry-picked, cytotoxicity control for Shn3 inhibitor project, dose response (AID 624134); format: functional
[14] = non-specific 3'UTR reporter inhibition in Clone20-Shn3RL – cell-based, Renilla luciferase, cherry-picked, counter-screen for Shn3 inhibitor project, dose response (AID 624133); format: functional
[15] = biological target: T3, RNA-binding protein pos-1 (Caenorhabditis elegans, UniProt G5EF15); experiment: disruptors of C. elegans POS-1 RNA interaction – biochemical, fluorescence polarization, dose response (AID 1964);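 note: purified POS-1 fused to maltose binding protein made in E. coli; potency of compounds blocking POS-1 binding to fluorescent RNA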
T3 sequence (G5EF15 whole entry): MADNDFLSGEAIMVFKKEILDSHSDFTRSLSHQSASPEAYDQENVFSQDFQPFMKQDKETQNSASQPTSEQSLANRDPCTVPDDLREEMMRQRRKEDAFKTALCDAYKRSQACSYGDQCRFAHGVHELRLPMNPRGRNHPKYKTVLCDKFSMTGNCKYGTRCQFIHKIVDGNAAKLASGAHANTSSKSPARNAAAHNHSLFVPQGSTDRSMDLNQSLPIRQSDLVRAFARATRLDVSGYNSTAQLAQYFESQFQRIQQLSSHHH

[16] = biological target: T4, Zinc finger protein mex-5 (Caenorhabditis elegans, UniProt Q9XUB2); experiment: potency of MEX-5 RNA-binding blockers – biochemical, C. elegans, fluorescence polarization, dose response (AID 1960)
T4 sequence (Q9XUB2 whole entry): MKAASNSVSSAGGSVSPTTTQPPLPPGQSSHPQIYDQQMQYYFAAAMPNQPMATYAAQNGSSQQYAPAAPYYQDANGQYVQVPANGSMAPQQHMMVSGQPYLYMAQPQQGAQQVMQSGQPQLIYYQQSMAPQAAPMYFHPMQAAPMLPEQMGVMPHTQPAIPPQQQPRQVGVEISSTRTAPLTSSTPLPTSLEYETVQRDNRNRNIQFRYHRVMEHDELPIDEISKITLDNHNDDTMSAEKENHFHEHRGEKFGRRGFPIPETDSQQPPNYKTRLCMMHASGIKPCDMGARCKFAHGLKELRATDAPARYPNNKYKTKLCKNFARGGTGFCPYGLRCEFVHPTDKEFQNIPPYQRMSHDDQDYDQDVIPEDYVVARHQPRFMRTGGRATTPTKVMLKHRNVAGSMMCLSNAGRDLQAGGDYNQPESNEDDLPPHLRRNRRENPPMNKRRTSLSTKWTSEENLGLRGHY

[17] = biological target: Glucose-6-phosphate 1-dehydrogenase (Homo sapiens, UniProt P11413); experiment: inhibition of Homo sapiens G6PD, dose series – biochemical, fluorescence, selectivity assay for P. falciparum G6PD inhibitor project, dose response (AID 504792); format: functional
[18] = biological target: 26S proteasome non-ATPase regulatory subunit 14 (Homo sapiens, UniProt O00487); experiment: inhibition of proteasome subunit RPN11 – biochemical, fluorescence polarization, uHTS hits, confirmation (AID 602368); format: functional
[19] = biological target: 72 kDa type IV collagenase (Homo sapiens, UniProt P08253); experiment: Dose Response validation of uHTS RPN11 inhibitor hits using a MMP-2 Fluorescence assay.; format: functional
[20] = biological target: Prothrombin (Bos taurus, UniProt P00735); experiment: thrombin protease inhibitors – biochemical, fluorescence polarization, uHTS hits, dose response (AID 602369); format: functional
[21] = biological target: Nuclear receptor subfamily 5 group A member 2 (Homo sapiens, UniProt O00482); format: functional, cell-based;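 note: HEK293T cells transfected with LRH-1 and a StAR promoter luciferase reporter; potency for inhibitors that lower LRH-1 driven reporter light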
[22] = biological target: Steroidogenic factor 1 (Homo sapiens, UniProt Q13285); experiment: Counterscreen for inverse agonists of the liver receptor homolog-1 (LRH-1; NR5A2): Luminescence-based cell-based high throughput dose response assay to identify inverse agonists of the Steroidogenic Factor 1 Nuclear Receptor (SF1; NR5A1).; format: functional
[23] = nonselective StAR promoter luciferase inhibitors – cell-based, luminescence, luciferase reporter, counter-screen for LRH-1 inverse agonist project, dose response (AID 651969); format: functional
[24] = biological target: DNA repair protein RAD52 homolog (Homo sapiens, UniProt P43351); format: functional, biochemical
[25] = tested on: HEK293; experiment: cells; format: functional, cell-based; conditions: Homo sapiens
[26] = biological target: T5, Nuclear receptor subfamily 0 group B member 1 (Homo sapiens, UniProt P51843); experiment: Luminescence-based cell-based high throughput dose response assay for inhibitors of the orphan nuclear receptor subfamily 0, group B, member 1 (DAX1; NR0B1). [Related pubchem assays (depositor defined):AID504766, AID504790]; format: functional
T5 sequence (P51843 whole entry): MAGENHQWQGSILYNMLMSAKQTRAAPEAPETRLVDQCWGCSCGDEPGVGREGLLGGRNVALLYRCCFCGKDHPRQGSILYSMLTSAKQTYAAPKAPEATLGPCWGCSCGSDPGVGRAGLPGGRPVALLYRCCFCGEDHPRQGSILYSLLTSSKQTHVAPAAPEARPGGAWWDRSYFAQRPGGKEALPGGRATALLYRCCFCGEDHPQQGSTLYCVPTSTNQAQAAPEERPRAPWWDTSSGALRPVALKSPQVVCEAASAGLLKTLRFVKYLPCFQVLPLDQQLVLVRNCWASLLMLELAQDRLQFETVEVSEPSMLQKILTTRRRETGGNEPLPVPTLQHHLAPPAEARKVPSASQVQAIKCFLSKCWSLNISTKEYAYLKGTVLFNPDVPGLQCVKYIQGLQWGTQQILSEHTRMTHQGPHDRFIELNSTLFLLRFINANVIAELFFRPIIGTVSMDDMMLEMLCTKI

[27] = tested on: HEK293; experiment: HEK293T cell viability loss, resazurin readout – resazurin fluorescence, cytotoxicity control for NF-kB activator project, SAR follow-up (AID 493251); format: functional, cell-based; conditions: Homo sapiens, HEK293
[28] = tested on: Jurkat; experiment: SAR Analysis of small molecule inhibitors of T-cell specific antigen receptor-induced NF-kB activation in a Jurkat cell line using a luminescence assay - Set 2. [Related pubchem assays (depositor defined):AID435003, AID435012, AID465]; format: functional, cell-based; conditions: Homo sapiens
[29] = tested on: HEK293; experiment: SAR Analysis of small molecule inhibitors of T-cell specific antigen receptor-induced NF-kB activation in a HEK-293T cell line using a luminescence assay - Set 2. [Related pubchem assays (depositor defined):AID435003, AID435012, AID489026]; format: functional, cell-based; conditions: Homo sapiens

Steroidogenic factor 1, sequence (Q13285 whole entry): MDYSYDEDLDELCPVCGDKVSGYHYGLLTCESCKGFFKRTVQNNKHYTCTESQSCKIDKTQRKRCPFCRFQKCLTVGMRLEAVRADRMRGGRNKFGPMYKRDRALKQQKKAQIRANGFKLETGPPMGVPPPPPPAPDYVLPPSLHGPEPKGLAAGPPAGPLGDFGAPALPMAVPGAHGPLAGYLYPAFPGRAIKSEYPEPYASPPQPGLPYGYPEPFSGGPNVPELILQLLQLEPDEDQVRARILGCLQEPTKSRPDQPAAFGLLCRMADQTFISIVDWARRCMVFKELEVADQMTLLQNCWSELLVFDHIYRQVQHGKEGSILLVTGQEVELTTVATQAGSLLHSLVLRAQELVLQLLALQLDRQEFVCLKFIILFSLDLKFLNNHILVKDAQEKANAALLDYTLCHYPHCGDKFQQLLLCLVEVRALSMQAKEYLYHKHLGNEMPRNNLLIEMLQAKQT
DNA repair protein RAD52 homolog, sequence (P43351 whole entry): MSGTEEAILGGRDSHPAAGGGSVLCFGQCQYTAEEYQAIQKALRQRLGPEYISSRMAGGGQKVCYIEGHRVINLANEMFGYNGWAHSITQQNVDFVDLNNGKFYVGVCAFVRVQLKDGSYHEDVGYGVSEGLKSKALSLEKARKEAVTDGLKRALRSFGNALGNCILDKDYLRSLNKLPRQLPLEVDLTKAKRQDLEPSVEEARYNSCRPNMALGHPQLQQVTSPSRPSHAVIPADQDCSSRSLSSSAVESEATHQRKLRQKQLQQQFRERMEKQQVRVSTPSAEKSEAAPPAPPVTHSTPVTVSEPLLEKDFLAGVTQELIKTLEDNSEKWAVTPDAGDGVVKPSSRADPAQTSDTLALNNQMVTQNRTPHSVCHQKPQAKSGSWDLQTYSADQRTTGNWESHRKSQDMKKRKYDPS
Beta Lactamase, sequence (Q932Y6 whole entry): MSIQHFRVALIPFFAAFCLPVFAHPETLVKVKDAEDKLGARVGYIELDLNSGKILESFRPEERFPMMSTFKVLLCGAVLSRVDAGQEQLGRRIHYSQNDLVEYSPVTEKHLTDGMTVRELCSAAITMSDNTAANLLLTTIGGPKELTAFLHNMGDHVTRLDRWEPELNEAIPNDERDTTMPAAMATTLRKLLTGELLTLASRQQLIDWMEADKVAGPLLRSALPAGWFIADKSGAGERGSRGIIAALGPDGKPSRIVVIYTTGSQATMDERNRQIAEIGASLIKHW
Nuclear receptor subfamily 5 group A member 2, sequence (O00482 whole entry): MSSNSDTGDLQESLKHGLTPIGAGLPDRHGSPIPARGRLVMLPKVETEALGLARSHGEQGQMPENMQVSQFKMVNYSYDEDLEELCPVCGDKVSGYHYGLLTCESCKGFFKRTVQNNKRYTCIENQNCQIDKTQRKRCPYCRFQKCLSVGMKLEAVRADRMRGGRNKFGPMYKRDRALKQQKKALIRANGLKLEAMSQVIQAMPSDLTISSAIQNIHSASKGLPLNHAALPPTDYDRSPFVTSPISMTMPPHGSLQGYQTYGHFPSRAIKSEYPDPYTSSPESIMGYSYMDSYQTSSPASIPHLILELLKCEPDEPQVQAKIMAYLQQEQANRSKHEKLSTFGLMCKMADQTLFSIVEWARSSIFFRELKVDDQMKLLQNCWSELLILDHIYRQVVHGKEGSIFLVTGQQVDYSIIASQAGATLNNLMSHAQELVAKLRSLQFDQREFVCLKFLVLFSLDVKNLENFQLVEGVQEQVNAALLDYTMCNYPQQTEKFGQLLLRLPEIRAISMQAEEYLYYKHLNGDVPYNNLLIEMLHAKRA
Glucose-6-phosphate 1-dehydrogenase, sequence (P11413 whole entry): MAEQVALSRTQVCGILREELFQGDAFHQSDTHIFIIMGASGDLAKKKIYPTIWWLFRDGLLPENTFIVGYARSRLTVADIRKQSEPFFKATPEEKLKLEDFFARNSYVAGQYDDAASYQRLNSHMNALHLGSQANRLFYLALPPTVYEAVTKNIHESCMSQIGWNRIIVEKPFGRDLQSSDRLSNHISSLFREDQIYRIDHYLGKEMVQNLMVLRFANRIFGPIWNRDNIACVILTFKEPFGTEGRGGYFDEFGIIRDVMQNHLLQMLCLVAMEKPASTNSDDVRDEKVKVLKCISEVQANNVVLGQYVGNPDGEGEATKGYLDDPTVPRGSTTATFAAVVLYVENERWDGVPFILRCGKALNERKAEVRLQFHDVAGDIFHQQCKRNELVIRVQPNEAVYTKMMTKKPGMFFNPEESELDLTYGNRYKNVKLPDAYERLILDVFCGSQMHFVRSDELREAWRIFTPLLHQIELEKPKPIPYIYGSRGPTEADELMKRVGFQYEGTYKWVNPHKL
72 kDa type IV collagenase, sequence (P08253 whole entry): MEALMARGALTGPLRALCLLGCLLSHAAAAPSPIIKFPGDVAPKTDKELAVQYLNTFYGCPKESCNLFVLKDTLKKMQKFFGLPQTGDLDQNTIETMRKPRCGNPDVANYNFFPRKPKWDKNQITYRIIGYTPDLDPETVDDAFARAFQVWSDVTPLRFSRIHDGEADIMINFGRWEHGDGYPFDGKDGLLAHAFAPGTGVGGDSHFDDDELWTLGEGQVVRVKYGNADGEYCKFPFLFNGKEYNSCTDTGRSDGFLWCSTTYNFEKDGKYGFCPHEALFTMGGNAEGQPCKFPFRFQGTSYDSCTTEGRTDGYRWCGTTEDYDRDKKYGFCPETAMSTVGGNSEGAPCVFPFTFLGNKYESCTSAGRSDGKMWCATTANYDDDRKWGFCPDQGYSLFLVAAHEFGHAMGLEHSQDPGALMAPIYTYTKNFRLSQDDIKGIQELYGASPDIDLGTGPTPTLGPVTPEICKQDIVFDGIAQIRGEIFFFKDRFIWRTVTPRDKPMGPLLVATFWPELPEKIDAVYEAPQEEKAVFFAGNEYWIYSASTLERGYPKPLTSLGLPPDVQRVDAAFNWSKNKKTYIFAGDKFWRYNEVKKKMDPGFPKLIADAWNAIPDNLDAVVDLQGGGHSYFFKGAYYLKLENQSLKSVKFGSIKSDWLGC
26S proteasome non-ATPase regulatory subunit 14, sequence (O00487 whole entry): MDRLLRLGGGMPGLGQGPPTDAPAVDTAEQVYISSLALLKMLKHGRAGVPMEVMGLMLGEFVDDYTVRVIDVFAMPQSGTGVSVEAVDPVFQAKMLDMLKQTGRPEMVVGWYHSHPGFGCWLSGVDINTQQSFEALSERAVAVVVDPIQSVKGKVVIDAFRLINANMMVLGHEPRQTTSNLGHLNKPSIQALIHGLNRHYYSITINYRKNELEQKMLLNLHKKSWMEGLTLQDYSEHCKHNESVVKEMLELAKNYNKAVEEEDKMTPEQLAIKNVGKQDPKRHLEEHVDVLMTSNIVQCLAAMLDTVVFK

For CCOC(=O)c1ccc(NC(=O)c2nc(S(=O)(=O)Cc3ccccc3)ncc2Cl)cc1, the EC50 [1] was > 120 µM (not active), the EC50 [2] was 6.81 µM (active) and the EC50 [3] was 10.3 µM (active). The EC50 [4] was 10.8 µM (active), the EC50 [5] was 2.11 µM (active) and the EC50 [6] was 10 µM (active). The AC50 [7] was 9.92 µM (active), the IC50 [8] was 1.95 µM (active) and the IC50 [9] was 8.4 µM (active). The AC50 [10] was 6.7 µM (active), the AC50 [11] was 36.6 µM (active) and the AC50 [12] was 0.572 µM (active). The AC50 [13] was 28.9 µM (active) and the AC50 [14] was 7.7 µM (active).

With O=C(CCl)NCCN1C(=O)S/C(=C\c2cccnc2)C1=O the EC50 [15] was > 300 µM (not active), the EC50 [16] was > 300 µM (not active) and the IC50 [17] was > 80 µM (inactive). For the same molecule, the IC50 [18] was 7.21 µM (active), the IC50 [19] was 21.2 µM (active) and the IC50 [20] was > 100 µM (inactive). The IC50 [21] was 8.94 µM (active), the IC50 [22] was 3.69 µM (active) and the IC50 [23] was 26.4 µM (inactive). The AC50 [24] was 2.24 µM (active).

In the case of CSCC[C@H](NC(=O)OC(C)(C)C)C(=O)N1CCC(C(=O)N[C@@H](C)C(=O)NC(C)c2ccccc2)CC1 (some centres undefined), the IC50 [25] is reported as > 67.5 µM (inactive) and the IC50 [26] is reported as > 67.5 µM (inactive).

For COc1ccc(C(NC(=O)Cc2ccccc2)c2ccc3cccnc3c2O)cc1OC (centres undefined), the IC50 [27] was 11.2 µM (active), the IC50 [28] was 2.24 µM (active) and the IC50 [29] was 2.61 µM (active).
